Laboratory results published in patent US8802597B2, “Herbicidal pyrimidines” (E I du Pont de Nemours and Company, priority 2003, dated 2014).
Like-named read-outs stand apart in the source and are kept apart here.

Tests used:
Assay in all cases: Test C pre/postemergence
Format in all cases: in vivo
[1] = tested on: velvetleaf (Abutilon theophrasti); conditions: Abutilon theophrasti; for pest or weed control at 62 g/ha: 62 g ai/ha; for pest or weed control at 125 g/ha: 125 g ai/ha; for pest or weed control at 250 g/ha: 250 g ai/ha; for pest or weed control at 500 g/ha: 500 g ai/ha
Summary of the method: (§1)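 Applications: preemergence onto seeded soil and postemergence onto 1- to 4-leaf seedlings, compound carried in non-phytotoxic solvent plus surfactant. Kept in greenhouse 12 to 14 days. Scored visually relative to untreated controls, 0 (no effect) to 100 (complete control).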

[2] = tested on: crabgrass (Digitaria sanguinalis); conditions: Digitaria sanguinalis; for pest or weed control at 62 g/ha: 62 g ai/ha; for pest or weed control at 125 g/ha: 125 g ai/ha; for pest or weed control at 250 g/ha: 250 g ai/ha; for pest or weed control at 500 g/ha: 500 g ai/ha
Summary of the method: as §1

kochia (Kochia scoparia) = conditions: Bassia scoparia, post-emergence, Postemergence
Summary of the method: as §1

[3] = tested on: cocklebur (Xanthium strumarium); conditions: Xanthium strumarium; for pest or weed control at 62 g/ha: 62 g ai/ha; for pest or weed control at 125 g/ha: 125 g ai/ha; for pest or weed control at 250 g/ha: 250 g ai/ha; for pest or weed control at 500 g/ha: 500 g ai/ha
Summary of the method: as §1

[4] = tested on: woolly cupgrass (Eriochloa villosa); conditions: Eriochloa villosa; for pest or weed control at 62 g/ha: 62 g ai/ha; for pest or weed control at 125 g/ha: 125 g ai/ha; for pest or weed control at 250 g/ha: 250 g ai/ha; for pest or weed control at 500 g/ha: 500 g ai/ha
Summary of the method: as §1

[5] = tested on: common (oilseed) sunflower (Helianthus annuus); conditions: Helianthus annuus, pre-emergence, Preemergence, read-out: Plant response rating, Sunflower
Summary of the method: as §1

[6] = tested on: eastern black nightshade (Solanum ptycanthum); conditions: Solanum, pre-emergence, Preemergence, read-out: Plant response rating, Nightshade
Summary of the method: as §1

[7] = tested on: giant foxtail (Setaria faberii); conditions: Setaria faberi; for pest or weed control at 125 g/ha: 125 g ai/ha; for pest or weed control at 500 g/ha: 500 g ai/ha; for pest or weed control at 62 g/ha: 62 g ai/ha; for pest or weed control at 250 g/ha: 250 g ai/ha
Summary of the method: as §1

[8] = tested on: pigweed (Amaranthus retroflexus); conditions: Amaranthus retroflexus; for pest or weed control at 62 g/ha: 62 g ai/ha; for pest or weed control at 125 g/ha: 125 g ai/ha; for pest or weed control at 250 g/ha: 250 g ai/ha; for pest or weed control at 500 g/ha: 500 g ai/ha
Summary of the method: as §1

[9] = tested on: common ragweed (Ambrosia elatior); conditions: Ambrosia artemisiifolia; for pest or weed control at 62 g/ha: 62 g ai/ha; for pest or weed control at 125 g/ha: 125 g ai/ha; for pest or weed control at 250 g/ha: 250 g ai/ha; for pest or weed control at 500 g/ha: 500 g ai/ha
Summary of the method: as §1

[10] = tested on: morningglory (Ipomoea coccinea); conditions: Ipomoea; for pest or weed control at 62 g/ha: 62 g ai/ha; for pest or weed control at 125 g/ha: 125 g ai/ha; for pest or weed control at 250 g/ha: 250 g ai/ha; for pest or weed control at 500 g/ha: 500 g ai/ha
Summary of the method: as §1

[11] = tested on: yellow nutsedge (Cyperus esculentus); conditions: Cyperus; for pest or weed control at 62 g/ha: 62 g ai/ha; for pest or weed control at 125 g/ha: 125 g ai/ha; for pest or weed control at 250 g/ha: 250 g ai/ha; for pest or weed control at 500 g/ha: 500 g ai/ha
Summary of the method: as §1

[12] = post-emergence, Postemergence, scale 0 to 100 (0 no effect, 100 complete control), read-out: Velvetleaf plant response rating
[13] = post-emergence, Postemergence, scale 0 to 100, read-out: Plant response rating, Velvetleaf
[14] = pre-emergence, Preemergence, scale 0 to 100, read-out: Plant response rating, Velvetleaf
[15] = post-emergence, Postemergence, scale 0 to 100 (0 no effect, 100 complete control), read-out: Crabgrass plant response rating
[16] = post-emergence, Postemergence, scale 0 to 100, read-out: Plant response rating, Crabgrass
[17] = pre-emergence, Preemergence, scale 0 to 100, read-out: Plant response rating, Crabgrass
[18] = post-emergence, Postemergence, scale 0 to 100 (0 no effect, 100 complete control), read-out: Cocklebur plant response rating
[19] = post-emergence, Postemergence, scale 0 to 100, read-out: Plant response rating, Cocklebur
[20] = pre-emergence, Preemergence, scale 0 to 100, read-out: Plant response rating, Cocklebur
[21] = post-emergence, Postemergence, scale 0 to 100 (0 no effect, 100 complete control), read-out: Cupgrass, Woolly plant response rating
[22] = post-emergence, Postemergence, scale 0 to 100, read-out: Plant response rating, Cupgrass, Woolly
[23] = pre-emergence, Preemergence, scale 0 to 100, read-out: Plant response rating, Cupgrass, Woolly
[24] = 62 g ai/ha, scale 0 to 100, 0 no effect, 100 complete control
[25] = post-emergence, Postemergence, scale 0 to 100 (0 no effect, 100 complete control), read-out: Foxtail, Giant plant response rating
[26] = post-emergence, Postemergence, scale 0 to 100, read-out: Plant response rating, Foxtail, Giant
[27] = pre-emergence, Preemergence, scale 0 to 100, read-out: Plant response rating, Foxtail, Giant
[28] = post-emergence, Postemergence, scale 0 to 100 (0 no effect, 100 complete control), read-out: Pigweed plant response rating
[29] = post-emergence, Postemergence, scale 0 to 100, read-out: Plant response rating, Pigweed
[30] = pre-emergence, Preemergence, scale 0 to 100, read-out: Plant response rating, Pigweed
[31] = post-emergence, Postemergence, scale 0 to 100 (0 no effect, 100 complete control), read-out: Ragweed plant response rating
[32] = post-emergence, Postemergence, scale 0 to 100, read-out: Plant response rating, Ragweed
[33] = pre-emergence, Preemergence, scale 0 to 100, read-out: Plant response rating, Ragweed
[34] = post-emergence, Postemergence, scale 0 to 100 (0 no effect, 100 complete control), read-out: Morningglory plant response rating
[35] = post-emergence, Postemergence, scale 0 to 100, read-out: Plant response rating, Morningglory
[36] = pre-emergence, Preemergence, scale 0 to 100, read-out: Plant response rating, Morningglory
[37] = post-emergence, Postemergence, scale 0 to 100 (0 no effect, 100 complete control), read-out: Nutsedge, Yellow plant response rating
[38] = post-emergence, Postemergence, scale 0 to 100, read-out: Plant response rating, Nutsedge, Yellow
[39] = pre-emergence, Preemergence, scale 0 to 100, read-out: Plant response rating, Nutsedge, Yellow

## Nc1nc(C2CC2)nc(C(=O)OCc2ccccc2)c1Br [Compound 22, phenylmethyl 6-amino-5-bromo-2-cyclopropyl-4-pyrimidinecarboxylate]
[1]; [12]
  pest or weed control at 62 g/ha: 55%
  pest or weed control at 125 g/ha: 60%
[1]; [13]
  pest or weed control at 250 g/ha: 90%
  pest or weed control at 500 g/ha: 95%
[1]; pre-emergence, Preemergence, scale 0 to 100, 0 no effect, 100 complete control, read-out: Plant response rating, Velvetleaf
  pest or weed control at 62 g/ha: 90%
[1]; [14]
  pest or weed control at 125 g/ha: 95%
  pest or weed control at 250 g/ha: 100%
  pest or weed control at 500 g/ha: 100%
[2]; [15]
  pest or weed control at 62 g/ha: 50%
  pest or weed control at 125 g/ha: 55%
[2]; [16]
  pest or weed control at 250 g/ha: 85%
  pest or weed control at 500 g/ha: 85%
[2]; pre-emergence, Preemergence, scale 0 to 100, 0 no effect, 100 complete control, read-out: Plant response rating, Crabgrass
  pest or weed control at 62 g/ha: 90%
[2]; [17]
  pest or weed control at 125 g/ha: 95%
  pest or weed control at 250 g/ha: 95%
  pest or weed control at 500 g/ha: 100%
Kochia (Kochia scoparia); 62 g ai/ha, scale 0 to 100 (0 no effect, 100 complete control), read-out: Kochia plant response rating
  pest or weed control at 62 g/ha: 95%
Kochia (Kochia scoparia); 125 g ai/ha, scale 0 to 100 (0 no effect, 100 complete control), read-out: Kochia plant response rating
  pest or weed control at 125 g/ha: 100%
Kochia (Kochia scoparia); 250 g ai/ha, scale 0 to 100, read-out: Plant response rating, Kochia
  pest or weed control at 250 g/ha: 100%
Kochia (Kochia scoparia); 500 g ai/ha, scale 0 to 100, read-out: Plant response rating, Kochia
  pest or weed control at 500 g/ha: 100%
[3]; [18]
  pest or weed control at 62 g/ha: 90%
  pest or weed control at 125 g/ha: 90%
[3]; [19]
  pest or weed control at 250 g/ha: 100%
  pest or weed control at 500 g/ha: 100%
[3]; pre-emergence, Preemergence, scale 0 to 100, 0 no effect, 100 complete control, read-out: Plant response rating, Cocklebur
  pest or weed control at 62 g/ha: 90%
[3]; [20]
  pest or weed control at 125 g/ha: 95%
  pest or weed control at 250 g/ha: 100%
  pest or weed control at 500 g/ha: 100%
[4]; [21]
  pest or weed control at 62 g/ha: 60%
  pest or weed control at 125 g/ha: 60%
[4]; [22]
  pest or weed control at 250 g/ha: 60%
  pest or weed control at 500 g/ha: 65%
[4]; pre-emergence, Preemergence, scale 0 to 100, 0 no effect, 100 complete control, read-out: Plant response rating, Cupgrass, Woolly
  pest or weed control at 62 g/ha: 40%
[4]; [23]
  pest or weed control at 125 g/ha: 95%
  pest or weed control at 250 g/ha: 95%
  pest or weed control at 500 g/ha: 95%
[5]; [24]
  pest or weed control at 62 g/ha: 90%
[5]; 125 g ai/ha, scale 0 to 100
  pest or weed control at 125 g/ha: 95%
[5]; 250 g ai/ha, scale 0 to 100
  pest or weed control at 250 g/ha: 100%
[5]; 500 g ai/ha, scale 0 to 100
  pest or weed control at 500 g/ha: 100%
[6]; [24]
  pest or weed control at 62 g/ha: 100%
[6]; 125 g ai/ha, scale 0 to 100
  pest or weed control at 125 g/ha: 100%
[6]; 250 g ai/ha, scale 0 to 100
  pest or weed control at 250 g/ha: 100%
[6]; 500 g ai/ha, scale 0 to 100
  pest or weed control at 500 g/ha: 100%
[7]; [25]
  pest or weed control at 125 g/ha: 45%
  pest or weed control at 62 g/ha: 40%
[7]; [26]
  pest or weed control at 500 g/ha: 60%
  pest or weed control at 250 g/ha: 50%
[7]; pre-emergence, Preemergence, scale 0 to 100, 0 no effect, 100 complete control, read-out: Plant response rating, Foxtail, Giant
  pest or weed control at 62 g/ha: 10%
[7]; [27]
  pest or weed control at 125 g/ha: 15%
  pest or weed control at 250 g/ha: 20%
  pest or weed control at 500 g/ha: 60%
[8]; [28]
  pest or weed control at 62 g/ha: 85%
  pest or weed control at 125 g/ha: 100%
[8]; [29]
  pest or weed control at 250 g/ha: 100%
  pest or weed control at 500 g/ha: 100%
[8]; pre-emergence, Preemergence, scale 0 to 100, 0 no effect, 100 complete control, read-out: Plant response rating, Pigweed
  pest or weed control at 62 g/ha: 90%
[8]; [30]
  pest or weed control at 125 g/ha: 100%
  pest or weed control at 250 g/ha: 100%
  pest or weed control at 500 g/ha: 100%
[9]; [31]
  pest or weed control at 62 g/ha: 80%
  pest or weed control at 125 g/ha: 85%
[9]; [32]
  pest or weed control at 250 g/ha: 90%
  pest or weed control at 500 g/ha: 90%
[9]; pre-emergence, Preemergence, scale 0 to 100, 0 no effect, 100 complete control, read-out: Plant response rating, Ragweed
  pest or weed control at 62 g/ha: 90%
[9]; [33]
  pest or weed control at 125 g/ha: 100%
  pest or weed control at 250 g/ha: 100%
  pest or weed control at 500 g/ha: 100%
[10]; [34]
  pest or weed control at 62 g/ha: 90%
  pest or weed control at 125 g/ha: 90%
[10]; [35]
  pest or weed control at 250 g/ha: 95%
  pest or weed control at 500 g/ha: 100%
[10]; pre-emergence, Preemergence, scale 0 to 100, 0 no effect, 100 complete control, read-out: Plant response rating, Morningglory
  pest or weed control at 62 g/ha: 100%
[10]; [36]
  pest or weed control at 125 g/ha: 100%
  pest or weed control at 250 g/ha: 100%
  pest or weed control at 500 g/ha: 100%
[11]; [37]
  pest or weed control at 62 g/ha: 0%
  pest or weed control at 125 g/ha: 0%
[11]; [38]
  pest or weed control at 250 g/ha: 0%
  pest or weed control at 500 g/ha: 0%
[11]; pre-emergence, Preemergence, scale 0 to 100, 0 no effect, 100 complete control, read-out: Plant response rating, Nutsedge, Yellow
  pest or weed control at 62 g/ha: 0%
[11]; [39]
  pest or weed control at 125 g/ha: 0%
  pest or weed control at 250 g/ha: 95%
  pest or weed control at 500 g/ha: 95%
